From patent publication US20210253598A1, “ARYL ANNULATED MACROCYCLIC INDOLE DERIVATIVES” (priority 2017, published 2021)
Several values for one entry are separate records, joined by “and”; a condition that tells them apart may be missing. Equal values may be shown once. Read-outs that look alike come from different tables or passages of the source. One block for each molecule: values may come before it.

Key:
HMC-1-8 = experiment: Anti-proliferative effect in HMC-1-8 cells, CellTiter-Glo (Assay 7); type: cell-based; conditions: HMC-1-8, 72 hours incubation, read-out: Antiproli HMC-1-8
Description: Assessment of the Anti-Proliferative Effect of Compounds in Different Cell Lines
The impact of compounds on the proliferation of different cell lines was assessed using the CellTiter-Glo® Luminescent Cell Viability reagent from Promega (G7573).
In parallel, cells were plated in a reference (day 0) plate for time zero determination. Cells were incubated in a humidified incubator at 37° C. overnight.
Rim wells were excluded. The cells were incubated for 72 hours in a humidified incubator at 37° C. The day 0 plate was measured by adding 30 μL/well of CTG solution (CellTiter-Glo® Luminescent Cell Viability reagent, Promega G7573) to time zero wells in the reference plate followed by a 10 minutes incubation and luminescence reading at 0.1 ms. using the PHERAstar FS microplate reader (BMG Labtech).
After 72 hours incubation, the treated plates were measured in the same way as the day 0 plate mentioned above. The Bella DRC Master Sheet was used to calculate IC50s, with CI=day 0 values and C0=DMSO control values.

SUDHL10 [1] = experiment: Induction of cytotoxicity in SUDHL10 cells, CellTiter-Glo (Assay 6); type: cell-based; conditions: SUDHL10, 5 hours incubation, median, read-out: Cytotox SUDHL10 [M] (median)
Method in brief: (§1)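 Viability of treated lymphoma cells is measured by luminescence with CellTiter-Glo reagent, incubated 15 minutes at room temperature. Compound exposure lasts 5 hours at 37° C.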

BCL-XL = BCL-XL (Homo sapiens, UniProt Q07817); experiment: Protein-protein interaction assay BCL-XL/Bad BH3 peptide, TR-FRET (BCL-XL assay, Assay 2); type: binding; conditions: His-BCL-XL / Bad BH3 peptide, median
BCL-2 = BCL-2 (Homo sapiens, UniProt P10415); experiment: Protein-protein interaction assay BCL-2/Bad BH3 peptide, TR-FRET (BCL-2 assay, Assay 3); type: binding; conditions: His-BCL-2 / Bad BH3 peptide, median
Description: The dose-dependent inhibition by the compounds described in this invention of the interaction between BCL-2 and the BH3 domain of Bad (both human) was determined using a steady state binding competition assay with time-resolved fluorescence energy transfer (TR-FRET) readout. For that purpose BCL-2 (amino acids 1-211, C-terminal fused to a hexahistidine (6×His) tag (SEQ ID 5) and a synthetic Bad BH3-derived peptide of sequence Biotin-PEG2-PEG2-[sequence]-Nle-[sequence]-amide (SEQ ID 4) served as protein receptor and tracer ligand respectively. The recombinant BCL-2 protein (expressed in E. coli) was purchased from BPS Bioscience (San Diego, Calif., USA). The Bad BH3-derived peptide can be obtained from e.g. Biosyntan (Berlin, Germany).
For that, 100-fold concentrated DMSO solutions were prepared by serial dilutions (1:3.4) of a 2 mM stock solution in a clear, 384-well microtiter plate (Greiner Bio-One, Frickenhausen, Germany). From there, 50 nl were transferred in a dark test plate (Greiner Bio-One, Frickenhausen, Germany). The assay was initiated by addition of 2 μl of a 2,5-fold concentrated His-BCL-2 solution (usually for a 1 nM end concentration in 5 μl reaction volume) in aqueous assay buffer [50 mM Tris/HCl pH 7, 100 mM sodium chloride (NaCl), 50 mM potassium fluoride (KF), 0.005% Tween-20, 2 mM DTT, 0.1% bovine gamma globulin (BGG)] to the compounds in the assay plate. This was followed by a 10-minute incubation step at 22° C. for pre-equilibration of the putative complex between His-BCL-2 and the compounds.
The mixture was incubated in the dark for one hour at 22° C. and then overnight at 4° C. The formation of BCL-2/Bad complexes was determined by measuring the resonance energy transfer of the anti-His-Eu-cryptate antibody to the streptavidin-XL665 present in the reaction. For that purpose, the fluorescence emission at 620 nm and 665 nm after excitation at 330-350 nm was measured in a TR-FRET measuring instrument, for instance a Rubystar or a Pherastar (both from BMG Lab Technologies, Offenburg, Germany) or a Viewlux (Perkin-Elmer). The ratio of the emission at 665 nm and at 622 nm was used as indicator of the amount of BCL-2/Bad complexes present.
The resulting data (ratio) were normalized, taking 0% inhibition as the mean value of control measurements (usually 32 data points) where all reagents were included. In this case 50 nl DMSO were used instead of compounds. […] IC50 values were determined by regression analysis based on a 4 parameter equation (minimum, maximum, IC50, Hill; Y=Max+(Min−Max)/(1+(X/IC50)^Hill) using the Screener Software (Genedata).

SUDHL5 [2] = experiment: Induction of caspase-3/7 activity in SUDHL5 cells (Assay 4); type: cell-based; conditions: SUDHL5, 3 hours treatment, Caspase-Glo 3/7, median, read-out: Caspase SUDHL5 [M] (median)
Method in brief: (§2)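 DLBCL lines SUDHL5 and SUDHL10 were treated with compound for 3 h at 37 °C. Caspase-3/7 activity was then read by Caspase-Glo 3/7 luminescence after 1 h at 37 °C. Medium-only background was subtracted and values were normalized to the mean of DMSO-treated cells.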

SUDHL5 [3] = experiment: Anti-proliferative effect in SUDHL5 cells, CellTiter-Glo (Assay 7); type: cell-based; conditions: SUDHL5, 72 hours incubation, CellTiter-Glo, median, read-out: Antiproli SUDHL5 [M] (median)
Method in brief: (§3)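 Cells plated and incubated overnight at 37° C, then exposed to compound for 72 hours. Viability read as CellTiter-Glo luminescence, with a day 0 plate as time-zero reference. IC50 calculated with day 0 values and DMSO control values as references.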

A2780 = experiment: Anti-proliferative effect in A2780 cells, CellTiter-Glo (Assay 7); type: cell-based; conditions: Homo sapiens, A2780, 72 h, A2780, 72 hours incubation, CellTiter-Glo; several values per example; read-out: Antiproli A2780
Method in brief: as §3

MV-4-11 = experiment: Anti-proliferative effect in MV-4-11 cells, CellTiter-Glo (Assay 7); type: cell-based; conditions: MV-4-11, 72 hours incubation, CellTiter-Glo, several values per example, read-out: Antiproli MV-4-11
Method in brief: as §3

AMO-1 = experiment: Anti-proliferative effect in AMO-1 cells, CellTiter-Glo (Assay 7); type: cell-based; conditions: AMO-1, 72 hours incubation, CellTiter-Glo, several values per example, read-out: Antiproli AMO-1
Method in brief: as §3

SUDHL5 [4] = experiment: Induction of cytotoxicity in SUDHL5 cells, CellTiter-Glo (Assay 6); type: cell-based; conditions: SUDHL5, 5 hours incubation, median, read-out: Cytotox SUDHL5 [M] (median)
Method in brief: as §1

SUDHL10 [5] = experiment: Induction of caspase-3/7 activity in SUDHL10 cells (Assay 4); type: cell-based; conditions: SUDHL10, 3 hours treatment, Caspase-Glo 3/7, median, read-out: Caspase SUDHL10 [M] (median)
Method in brief: as §2

MCL-1 = MCL-1 (Homo sapiens, UniProt Q07820, K194A/K197A/R201A); experiment: Protein-protein interaction assay MCL-1/Noxa BH3 peptide, TR-FRET (MCL-1 assay, Assay 1); type: binding; conditions: MCL-1 Assay [M] (median), MBP-MCL-1 / Noxa BH3 peptide
Method in brief: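 Human MBP-fused MCL-1 (aa 173-321; 1 nM final) was pre-incubated 10 min at 22 °C with compound in pH 7 Tris buffer containing NaCl, KF, Tween-20, DTT and BGG. Displacement of biotinylated Noxa BH3 peptide was read by TR-FRET (anti-MBP-Eu cryptate/streptavidin-XL665) after 1 h at 22 °C plus overnight at 4 °C. IC50 came from four-parameter fits against DMSO controls.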

[6] = 11-membered ring
[7] = the molecule shown is the open-chain precursor; crosslinker bond; 11-membered ring; 2,3-bis(chloromethyl)pyrazine/Cs2CO3/NaI; MeCN; 9.09 mM; 70.0 °C
[8] = the molecule shown is the open-chain precursor; crosslinker bond; 11-membered ring; 2,3-bis(chloromethyl)pyridine HCl/Cs2CO3/NaI; MeCN; 73.1 mM; 75.0 °C

Sequence of BCL-2 (P10415 1-211): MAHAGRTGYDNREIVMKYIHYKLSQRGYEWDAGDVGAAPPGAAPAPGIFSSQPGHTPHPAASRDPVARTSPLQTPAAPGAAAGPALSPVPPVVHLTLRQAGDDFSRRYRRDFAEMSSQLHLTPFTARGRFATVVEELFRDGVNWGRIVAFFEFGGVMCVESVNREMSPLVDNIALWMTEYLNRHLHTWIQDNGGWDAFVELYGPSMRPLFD
Sequence of BCL-XL (Q07817 1-212): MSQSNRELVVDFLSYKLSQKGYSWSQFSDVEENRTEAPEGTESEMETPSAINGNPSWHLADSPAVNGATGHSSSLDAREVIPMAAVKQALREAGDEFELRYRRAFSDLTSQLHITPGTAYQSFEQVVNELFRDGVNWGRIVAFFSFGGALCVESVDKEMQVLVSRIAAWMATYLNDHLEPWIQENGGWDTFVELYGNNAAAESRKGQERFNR
Sequence of MCL-1 (Q07820 173-321 K194A/K197A/R201A, looked up): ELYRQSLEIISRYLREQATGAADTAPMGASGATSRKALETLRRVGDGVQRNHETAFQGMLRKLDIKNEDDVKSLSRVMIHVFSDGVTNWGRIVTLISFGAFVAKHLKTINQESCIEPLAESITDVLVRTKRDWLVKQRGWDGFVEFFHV

IC50 (BCL-XL): > 20 µM
IC50 (BCL-2): > 20 µM
EC50 (SUDHL5 [2]; Homo sapiens, SU-DHL-5, 3 h): 2.5e-06 M
IC50 (SUDHL5 [3]; Homo sapiens, SU-DHL-5, 72 h): 2.5e-06 M
IC50 (A2780): > 33 µM
IC50 (MV-4-11; Homo sapiens, MV4-11, 72 h): 15.1 µM
EC50 (SUDHL10 [5]; Homo sapiens, SU-DHL10, 3 h): 1e-05 M
IC50 (MCL-1): 1.5e-09 M
SMILES: Cc1c2c(nn1C)COCc1nccnc1Cn1c(C(=O)O)c(CCCOc3cccc4cc(F)ccc34)c3ccc(Cl)c-2c31 (racemic) [Example 93, (rac)-3-Chloro-17-{3-[(6-fluoronaphthalen-1-yl)oxy]propyl}-4,5-dimethyl-5,7,9,14-tetrahydropyrazino[2′,3′:3,4]pyrazolo[4′,3′:9,10][1,6]oxazacycloundecino[8,7,6-hi]indole-16-carboxylic Acid]
IC50 (HMC-1-8; 72 h): 32 µM
IC50 (SUDHL10 [1]; Homo sapiens, SU-DHL10, 5 h): 6.7e-06 M
IC50 (AMO-1; Homo sapiens, AMO1, 72 h): 7.19 µM
IC50 (SUDHL5 [4]; Homo sapiens, SU-DHL-5, 5 h): 2.8e-06 M

SMILES: CCOC(=O)c1[nH]c2c(-c3c(CO)nn(C)c3C)c(Cl)ccc2c1CCCOc1cccc2cc(F)ccc12
ring closure, isolated yield ([6]; the molecule shown is the open-chain precursor, crosslinker bond, 1,2-bis(bromomethyl)benzene/Cs2CO3, MeCN/THF 2:1, 24.3 mM, 80.0 °C): 74%
ring closure, crude yield [7]: 90%

SMILES: CCOC(=O)c1c(CCCOc2cccc3ccccc23)c2ccc(Cl)c3c2n1Cc1ccccc1COCc1nn(C)c(C)c1-3
ring closure, yield of all isomers (from CCOC(=O)c1c(CCCOc2cccc3ccccc23)c2ccc(Cl)c(-c3c(CO)nn(C)c3C)c2n1Cc1ccccc1CBr, ether bond, sodium hydride / di-tert-butyl imidodicarbonate, THF, 29.9 mM, […], 72.0 h): 76%
ring closure, isolated yield ([6]; from CCOC(=O)c1c(CCCOc2cccc3ccccc23)c2ccc(Cl)c(-c3c(CO)nn(C)c3C)c2n1Cc1ccccc1CBr, ether bond, NaH/di-tert-butyl imidodicarbonate, THF, 29.9 mM, […]): 76%

SMILES: CCOC(=O)c1c(CCCOc2cccc3ccccc23)c2cccc3c2n1Cc1ccccc1CNCc1nn(C)c(C)c1-3
ring closure, yield of all isomers (from CCOC(=O)c1c(CCCOc2cccc3ccccc23)c2cccc(-c3c(CBr)nn(C)c3C)c2n1Cc1ccccc1CN, amine bond, cesium carbonate, acetonitrile, 30.6 mM, 50.0 °C, 15.0 h): 47.3%

IC50 (BCL-XL): > 20 µM
IC50 (BCL-2): > 20 µM
EC50 (SUDHL5 [2]): 1.8e-06 M
IC50 (MV-4-11): 5.27 µM
EC50 (SUDHL10 [5]): 7.3e-06 M
SMILES: Cc1c2c(nn1C)COCc1nccnc1Cn1c(C(=O)O)c(CCCOc3cccc4ccccc34)c3ccc(Cl)c-2c31 (single isomer, unassigned; enantiomer 1) [Example 46, 3-Chloro-4,5-dimethyl-17-{3-[(naphthalen-1-yl)oxy]propyl}-5,7,9,14-tetrahydropyrazino-[2′,3′:3,4]pyrazolo[4′,3′:9,10][1,6]oxazacycloundecino[8,7,6-hi]indole-16-carboxylic Acid (Enantiomer 1)]
IC50 (HMC-1-8; 72 h): 11.9 µM
IC50 (SUDHL10 [1]): 7e-06 M
IC50 (AMO-1; Homo sapiens, AMO1, 72 h): 6.15 µM

EC50 (SUDHL5 [2]): 4.7e-06 M
IC50 (SUDHL5 [3]): 4.6e-06 M
IC50 (MV-4-11): 11.7 µM
EC50 (SUDHL10 [5]): 1.6e-05 M
SMILES: Cc1c2c(nn1C)COCc1nccnc1Cn1c(C(=O)O)c(CCCOc3cccc4ccccc34)c3ccc(Cl)c-2c31 (single isomer, unassigned; enantiomer 2) [Example 47, 3-Chloro-4,5-dimethyl-17-{3-[(naphthalen-1-yl)oxy]propyl}-5,7,9,14-tetrahydropyrazino-[2′,3′:3,4]pyrazolo[4′,3′:9,10][1,6]oxazacycloundecino[8,7,6-hi]indole-16-carboxylic Acid (Enantiomer 2)]
IC50 (HMC-1-8): 16.1 µM
IC50 (SUDHL10 [1]): 1.9e-05 M
IC50 (AMO-1): 11.5 µM
IC50 (SUDHL5 [4]): 4.8e-06 M

SMILES: CCOC(=O)c1[nH]c2c(-c3c(CO)nn(C)c3C)cccc2c1CCCOc1cccc2ccccc12
ring closure, yield after HPLC [8]: 20% and 30%

SMILES: CCOC(=O)c1c(CCCOc2cccc3cc(F)ccc23)c2ccc(Cl)c3c2n1Cc1ccccc1COCc1c-3c(CC)nn1CCN1CCOCC1
ring closure, yield of all isomers (from CCOC(=O)c1c(CCCOc2cccc3cc(F)ccc23)c2ccc(Cl)c(-c3c(CC)nn(CCN4CCOCC4)c3CO)c2n1Cc1ccccc1CBr, ether bond, NaH / di-tert-butyl imidodicarbonate, DMF, 56.1 mM, 50.0 °C, […]): 10%
ring closure, isolated yield ([6]; from CCOC(=O)c1c(CCCOc2cccc3cc(F)ccc23)c2ccc(Cl)c(-c3c(CC)nn(CCN4CCOCC4)c3CO)c2n1Cc1ccccc1CBr, ether bond, NaH/di-tert-butyl imidodicarbonate, DMF, 56.1 mM, […]): 10%
